Measurements from ChEMBL document CHEMBL1782032, “New aromatic substituted pyrazoles as selective inhibitors of human adipocyte fatty acid-binding protein” (Bioorg Med Chem Lett, 2011).
Calls of active or inactive are those of the source. No cut-off for these calls is given here.

Legend:
[1] = target: T1, Fatty acid-binding protein, adipocyte (Homo sapiens, UniProt P15090); assay: Displacement of fluorescent 1-anilinonapthalene 8-sulfonic acid from human a-FABP by fluorescence spectrophotometry
Target sequence in this assay (P15090 whole entry): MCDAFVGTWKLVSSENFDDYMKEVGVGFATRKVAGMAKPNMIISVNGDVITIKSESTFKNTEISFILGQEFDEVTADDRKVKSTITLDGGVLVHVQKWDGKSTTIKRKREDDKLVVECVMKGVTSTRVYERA

[2] = target: T2, Fatty acid-binding protein, heart (Homo sapiens, UniProt P05413); assay: Displacement of fluorescent 1-anilinonapthalene 8-sulfonic acid from human h-FABP by fluorescence spectrophotometry
Target sequence in this assay (P05413 whole entry): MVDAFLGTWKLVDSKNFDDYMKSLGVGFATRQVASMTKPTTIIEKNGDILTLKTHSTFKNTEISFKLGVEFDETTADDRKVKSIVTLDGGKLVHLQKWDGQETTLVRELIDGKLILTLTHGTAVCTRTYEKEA

RAW264.7 [3] = assay: Antiinflammatory activity in […] RAW264.7 cells assessed as inhibition of lipopolysaccharide induced MCP-1/CCL2 mRNA expression by PCR; format: functional, cell-based
RAW264.7 [4] = assay: Antiinflammatory activity in […] RAW264.7 cells assessed as inhibition of lipopolysaccharide induced TNF-alpha mRNA expression by PCR; format: functional, cell-based
[5] = target: T1, Fatty acid-binding protein, adipocyte; assay: Displacement of fluorescent 1-anilinonapthalene 8-sulfonic acid from human a-FABP at 10 uM by fluorescence spectrophotometry
Target sequence in this assay (P15090 2-132 limits assumed): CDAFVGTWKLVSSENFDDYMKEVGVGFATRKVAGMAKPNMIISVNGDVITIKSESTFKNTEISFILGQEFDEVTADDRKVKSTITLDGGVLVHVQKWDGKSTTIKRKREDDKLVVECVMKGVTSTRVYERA

[6] = target: T2, Fatty acid-binding protein, heart; assay: Displacement of fluorescent 1-anilinonapthalene 8-sulfonic acid from human h-FABP at 10 uM by fluorescence spectrophotometry
Target sequence in this assay (P05413 2-133 limits assumed): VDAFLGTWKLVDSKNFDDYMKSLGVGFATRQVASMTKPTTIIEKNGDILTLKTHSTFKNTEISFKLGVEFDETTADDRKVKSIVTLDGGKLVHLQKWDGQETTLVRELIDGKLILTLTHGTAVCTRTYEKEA

Ki [1] | Ki [2] | Activity [5] | Activity [6] | SMILES | inhibition (RAW264.7 [3]) | inhibition (RAW264.7 [4])
13 nM | 17000 nM |  |  | O=C(O)COc1cccc(-c2ccccc2-c2cc(-c3ccccc3)n(-c3ccc(Cl)cc3)n2)c1 |  | 
 |  |  |  | CCc1c(-c2ccccc2)c(-c2ccccc2)nn1-c1ccccc1-c1cccc(OCC(=O)O)c1 | Dose-dependent effect | Dose-dependent effect
5 nM | 4240 nM |  |  | O=C(O)COc1cccc(-c2ccccc2-c2cc(-c3cccs3)n(-c3ccc(Cl)cc3)n2)c1 |  | 
< 1 nM | 2270 nM |  |  | CC(Oc1cccc(-c2ccccc2-c2cc(-c3cccs3)n(-c3ccc(Cl)cc3)n2)c1)C(=O)O (configuration not stated) | Dose-dependent effect | Dose-dependent effect
7 nM | 4130 nM |  |  | O=C(O)COc1cccc(-c2ccccc2-c2cc(-c3ccco3)n(-c3ccc(Cl)cc3)n2)c1 |  | 
< 1 nM | > 50000 nM |  |  | CC(C)(Oc1cccc(-c2ccccc2-c2cc(-c3cccs3)n(-c3ccc(Cl)cc3)n2)c1)C(=O)O | Dose-dependent effect | Dose-dependent effect
6 nM | 3720 nM |  |  | CCC(Oc1cccc(-c2ccccc2-c2cc(-c3cccs3)n(-c3ccc(Cl)cc3)n2)c1)C(=O)O (configuration not stated) |  | 
 |  | inactive | inactive | CCOC(=O)COc1cccc(-c2ccccc2-n2nc(-c3ccccc3)c(-c3ccccc3)c2CC)c1 |  | 
32 nM | 5240 nM |  |  | O=C(O)COc1cccc(-c2ccccc2-c2cc(-c3ccccc3)n(-c3ccccc3)n2)c1 |  | 
